Assay results taken from paper PMC11270681, “Synthesis and Systematic Investigation of Lepidiline A and Its Gold(I), Silver(I), and Copper(I) Complexes Using In Vitro Cancer Models and Multipotent Stem Cells” (ACS Omega, 2024).
Values joined by “and” are separate entries in the source; they are usually repeats but may differ in a detail not shown here. Identical values can stand only once. Each block holds one compound with its values, some of them ahead of it.

Key:
[1] = system: IGROV-1; assay: Cytotoxicity (PrestoBlue), ovarian cancer line; assay type: cell-based; conditions: IGROV-1, 72 h incubation
Experimental: (§1) OVCAR-3 (OVC-3) and OVCAR-8 (OVC-8) ovarian serous adenocarcinomas, IGROV-1 ovarian endometrioid adenocarcinoma, OVCAR-5 (OVC-5) upper gastrointestinal carcinoma, MDA-MB-231 breast adenocarcinoma, and MCF-7 and T-47D invasive breast carcinomas were purchased from the Developmental Therapeutic Program of the National Cancer Institute (NIH, USA) and were cultured in an RPMI medium (Thermo Fisher). Mes-Sa and Mes-Sa/Dx5 uterine sarcoma cell lines were purchased from American Type Culture Collection (ATCC) and were kept in DMEM (Thermo Fisher). Mes-Sa B1 was transfected with the human MDR1 gene, and Mes-Sa mCherry, Mes-Sa B1 mOrange, and Mes-Sa/Dx5 eGFP were engineered to stably express the respective fluorescent proteins previously.[51] Culture media for cancer cells were supplemented with 10% fetal bovine serum, 2 mM L-glutamine, and 100 units/mL penicillin and 100 μg/mL streptomycin (Thermo Fisher). The adipose tissue and bone marrow-derived mesenchymal stem cells (AD-MSC and BM-MSC) were described previously[37] and were kept in DMEM-F12 (Gibco) supplemented with 10% fetal bovine serum, L-glutamine (Thermo Fisher), 0.1% gentamicin (Gibco, 50 mg/mL), and 16 ng/mL fibroblast growth factor 2 (Peprotech). Cells were kept at 37 °C under 5% CO2 and were negative for mycoplasma infection.
(§2) Cytotoxicities of the nonfluorescent cancer cells were assessed with a PrestoBlue cell viability reagent (Thermo Fisher). Briefly, 2500 cells/well were seeded on 384-well plates; then, the next-day drugs were added. After 72 h of incubation, PrestoBlue was added in a 10% final concentration, and after an hour of additional incubation, plates were measured with a PerkinElmer EnSpire plate reader at 555 nm/585 nm excitation/emission wavelengths. Stem cells were seeded on 96-well plates at a density of 5000 cells/well, and the following day, drugs were added for 96 h of incubation; then, viability was assessed with 10% PrestoBlue diluted in PBS. Fluorescent cancer cells were admixed before seeding on 384-well plates at an 800 cells/well density each, thus altogether 2400 cells/well. Drugs were added the following day, and the intensity of the fluorescent proteins was measured after 144 h of incubation at the respective fluorescent channels (excitation/emission, eGFP: 485 nm/510 nm; mCherry: 585 nm/610 nm; mOrange: 545 nm/567 nm). pIC50 values were calculated by a custom program written by Judit Sessler in C#. IC50 values and standard deviation were calculated from average pIC50 values from at least 3 independent measurements.

[2] = system: OVC-3; assay: Cytotoxicity (PrestoBlue), ovarian cancer line; assay type: cell-based; conditions: OVC-3, 72 h incubation
Experimental: as §1, §2

[3] = system: OVC-8; assay: Cytotoxicity (PrestoBlue), ovarian cancer line; assay type: cell-based; conditions: OVC-8, 72 h incubation
Experimental: as §1, §2

[4] = system: OVC-5; assay: Cytotoxicity (PrestoBlue), upper gastrointestinal cancer line; assay type: cell-based; conditions: OVC-5, 72 h incubation, PrestoBlue
Experimental: as §1, §2

[5] = system: MCF-7; assay: Cytotoxicity (PrestoBlue), breast cancer line; assay type: cell-based; conditions: MCF-7, 72 h incubation
Experimental: as §1, §2

[6] = system: MDA-MB-231; assay: Cytotoxicity (PrestoBlue), breast cancer line; assay type: cell-based; conditions: MDA-MB-231, 72 h incubation
Experimental: as §1, §2

[7] = system: T-47D; assay: Cytotoxicity (PrestoBlue), breast cancer line; assay type: cell-based; conditions: 72 h incubation
Experimental: as §1, §2

[8] = system: Mes-Sa; assay: Cytotoxicity, uterine sarcoma parental line; assay type: cell-based; conditions: fluorescent protein intensity after 144 h
Experimental: as §1, §2

[9] = system: Mes-Sa B1; assay: Cytotoxicity, MDR1-transfected uterine sarcoma line; assay type: cell-based; conditions: Mes-Sa B1 (MDR1 transfected, ABCB1 expressing), fluorescent protein intensity after 144 h
Experimental: as §1, §2

[10] = system: Mes-Sa/Dx5; assay: Cytotoxicity, doxorubicin-selected MDR uterine sarcoma line; assay type: cell-based; conditions: Mes-Sa/Dx5 (doxorubicin selected, ABCB1 expressing), fluorescent protein intensity after 144 h
Experimental: as §1, §2

[11] = system: AD-MSC; assay: Cytotoxicity (PrestoBlue), adipose-derived mesenchymal stem cells; assay type: cell-based; conditions: 96 h incubation
Experimental: as §1, §2

[12] = system: BM-MSC; assay: Cytotoxicity (PrestoBlue), bone marrow-derived mesenchymal stem cells; assay type: cell-based; conditions: 96 h incubation
Experimental: as §1, §2

[13] = system: im. BM-MSC; assay: Cytotoxicity (PrestoBlue), immortalized bone marrow MSC; assay type: cell-based; conditions: 96 h incubation
Experimental: as §1, §2

[14] = system: Bone marrow MSCs (BM-MSC); assay: Cytotoxicity, range over bone marrow MSCs; assay type: cell-based; conditions: BM-MSC and immortalized BM-MSC
Experimental: as §1, §2

[15] = system: MCF-7; assay: H2DCFDA intracellular ROS production assay; assay type: cell-based; conditions: MCF-7, 50 μM, 4 h incubation, vs medium
Experimental: (§3) To assess intracellular ROS production, we used a H2DCFDA cellular ROS assay kit (ab113851, Abcam) according to the manufacturer’s instructions. Briefly, 20,000 cells were seeded on 96-well plates. On the following day, cells were washed, and H2DCFDA solution, prepared by avoiding direct light, was added for 45 min. Next, cells were washed, and 50 μM samples of test compounds were aspirated on the cells in a complete and phenol red-free medium (FluoroBrite, Thermo Fisher). At each hour, fluorescence of 2′,7′-dichlorofluorescein (DCF) was measured at 484 nm/535 nm excitation/emission wavelengths. Values were normalized to 0 h measurements. Values indicate at least 3 independent measurements.

[16] = system: Mes-Sa; assay: H2DCFDA intracellular ROS production assay; assay type: cell-based; conditions: 50 μM, 4 h incubation, vs medium
Experimental: as §3

[17] = system: T-47D; assay: H2DCFDA intracellular ROS production assay; assay type: cell-based; conditions: 50 μM, 4 h incubation, vs medium
Experimental: as §3

[18] = Stability in serum-free culture medium by HPLC-UV; assay type: physicochemical; conditions: for AUC (HPLC-UV), single measurements 1-5 / AUC (HPLC-UV), average: serum-free culture medium
Experimental: Stability of the metal complexes in solution was measured in serum-free culture medium. The compounds were dissolved in DMSO right before the experiment. Solutions of Cu-LA and Ag-LA contained 1% final volume of DMSO, while Au-LA contained 30% DMSO. Samples were taken right after dilution, and after 1 h, 2 h, 4 h, 8 h, 16 h, 32 and 48 h, and measured by HPLC-UV.

[19] = system: MSCs; assay: Cytotoxicity, range over MSCs; assay type: cell-based; conditions: BMMSC; AD-MSC, BM-MSC, immortalized BM-MSC
Experimental: as §1
(§4) Cytotoxicities of the nonfluorescent cancer cells were assessed with a PrestoBlue cell viability reagent (Thermo Fisher). Briefly, 2500 cells/well were seeded on 384-well plates; then, the next-day drugs were added. After 72 h of incubation, PrestoBlue was added in a 10% final concentration, and after an hour of additional incubation, plates were measured with a PerkinElmer EnSpire plate reader at 555 nm/585 nm excitation/emission wavelengths. Stem cells were seeded on 96-well plates at a density of 5000 cells/well, and the following day, drugs were added for 96 h of incubation; then, viability was assessed with 10% PrestoBlue diluted in PBS. […] IC50 values and standard deviation were calculated from average pIC50 values from at least 3 independent measurements.

[20] = system: cancer lines; assay: Cytotoxicity, range over cancer lines; assay type: cell-based; conditions: read-out: IC50 range over non-MDR cancer cells
Experimental: as §1, §4

[21] = system: HL-60 leukemia line; parameters: method as in PMID 34808062; conditions: cited from earlier work
[22] = Homo sapiens, MES-SA/Dx5, 144 h

AUC (HPLC-UV), single measurements 1-5 ([18]; 0 h): 1030 and 1011 and 1021 and 1023 and 1047 | AUC (HPLC-UV), average ([18]; 0 h, Cu-LA, Ag-LA 1% DMSO, Au-LA 30% DMSO): 1026 | AUC (HPLC-UV), average ([18]; 1 h): 1019 | AUC (HPLC-UV), single measurements 1-5 ([18]; 1 h): 1022 and 1016 and 1021 and 1017 | AUC (HPLC-UV), average ([18]; 2 h): 1022 | AUC (HPLC-UV), single measurements 1-5 ([18]; 2 h): 1021 and 1020 and 1022 and 1023 | AUC (HPLC-UV), average ([18]; 4 h): 1042 | AUC (HPLC-UV), single measurements 1-5 ([18]; 4 h): 1040 and 1041 and 1043 and 1044 | AUC (HPLC-UV), average ([18]; 8 h): 1044 | AUC (HPLC-UV), single measurements 1-5 ([18]; 8 h): 1045 and 1042 and 1044 and 1046 | AUC (HPLC-UV), average ([18]; 16 h): 1042 | AUC (HPLC-UV), single measurements 1-5 ([18]; 16 h): 1039 and 1042 and 1046 | AUC (HPLC-UV), average ([18]; 32 h): 1038 | AUC (HPLC-UV), single measurements 1-5 ([18]; 32 h): 1030 and 1041 and 1038 and 1042 and 1039 | AUC (HPLC-UV), average ([18]; 48 h): 1039 | AUC (HPLC-UV), single measurements 1-5 ([18]; 48 h): 1038 and 1039 and 1040 | Stability in serum-free culture medium ([18]; HPLC-UV, observed 48 h): stable
SMILES: Cc1c(C)n(Cc2ccccc2)[c](=[Cu][Cl])n1Cc1ccccc1 [Cu-LA, Chloro-(1,3-dibenzyl-4,5-dimethyl-imidazol-2-ylidene)copper]
IC50 [1]: 72.9 µM | IC50 [2]: 58.5 µM | IC50 [3]: 67.6 µM | IC50 [4]: 104 µM | IC50 [5]: 41.3 µM | IC50 [6]: 62.5 µM | IC50 [7]: 24.8 µM | IC50 [8]: 18500 nM | IC50 [9]: > 100000 nM | IC50 [10]: 76600 nM | IC50 [11]: 23.7 µM | IC50 [12]: 98.3 µM | IC50 [13]: 75.4 µM | IC50 [14]: 48 to 98 µM | Higher intracellular ROS formation [15]: 2–3 fold | Higher intracellular ROS formation [16]: 2–3 fold | Higher intracellular ROS formation [17]: 2–3 fold

SMILES: COc1cccc2c1C(=O)c1c(O)c3c(c(O)c1C2=O)C[C@@](O)(C(=O)CO)C[C@@H]3O[C@H]1C[C@H](N)[C@H](O)[C@H](C)O1 [Doxorubicin, doxorubicin, reference compound]
IC50 [3]: 0.19 µM | IC50 ([6]; Homo sapiens): 0.22 µM | IC50 ([8]; Homo sapiens): 38 nM | IC50 [10, 22]: 2410 nM | IC50 ([11]; Mesenchymal stem cells, 96 h): 0.13 µM | IC50 ([12]; BMMSC): 0.1 µM | IC50 ([13]; BMMSC): 0.067 µM | IC50 [19]: 67 to 130 nM | IC50 [20]: 34 to 220 nM

SMILES: COc1cc([C@@H]2c3cc4c(cc3[C@@H](O[C@@H]3O[C@@H]5CO[C@@H](C)O[C@H]5[C@H](O)[C@H]3O)[C@H]3COC(=O)[C@H]23)OCO4)cc(OC)c1O [Etoposide, etoposide, reference compound]
IC50 ([8]; Homo sapiens): 260 nM | IC50 ([9]; Homo sapiens): 1170 nM | IC50 [10, 22]: 1700 nM

SMILES: COc1cccc(C[n+]2c(C)c(C)n(Cc3ccccc3)c2C)c1 [lepidiline D]
IC50 [21]: 1100 nM
